Assay results as given in patent US9695155B2, “Herbicidal substituted pyrimidinyloxy benzene compounds” (E. I. DU PONT DE NEMOURS AND COMPANY, priority 2013, dated 2017).

Assays:
[1] = tested on: ragweed; experiment: Test A preemergence; format: in vivo, Ambrosia elatior; conditions: for Plant response rating, Ragweed: 125 g ai/ha; for Ragweed plant response rating: 500 g ai/ha
Method in brief: (§1)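 Visual 0–100 rating (100 = complete control) taken about 10 d post-treatment relative to untreated checks. Preemergence: directed soil spray on sown loam/sand pots. Postemergence: seedlings 2–10 cm, 1–2 leaf. Non-phytotoxic solvent formulation with surfactant.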

[2] = tested on: giant foxtail; experiment: Test A postemergence; format: in vivo, Setaria faberii; conditions: 0 to 100 scale where 0 is no effect and 100 is complete control
Method in brief: as §1

[3] = tested on: Heteranthera limosa; experiment: Test B flooded paddy test; format: in vivo; conditions: Flood, 250 g ai/ha; 0 to 100 scale where 0 is no effect and 100 is complete control
Method in brief: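 Compound added straight to paddy water, with pots kept flooded 3 cm above soil, on plants grown to the 2-leaf stage. Visual scoring 0-100 (100 = complete control) against untreated controls after 13 to 15 greenhouse days.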

[4] = tested on: corn; experiment: Test C preemergence; format: in vivo, Zea mays; conditions: for Corn plant response rating: preemergence; for Plant response rating, Corn: Preemergence, 31 g ai/ha, scale 0 to 100, 0 no effect, 100 complete control
Method in brief: (§2)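 Visual ratings on a 0–100 scale (100 = complete control) were made versus untreated controls after 13–15 greenhouse days. Chemicals in a surfactant-containing non-phytotoxic solvent were applied either preemergence to seeds in loam–sand soil or postemergence to 1- to 4-leaf plants 2–18 cm tall.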

[5] = tested on: giant foxtail; experiment: Test C preemergence; format: in vivo, Setaria faberii; conditions: for Foxtail, Giant plant response rating: preemergence; for Plant response rating, Foxtail, Giant: Preemergence, 31 g ai/ha, scale 0 to 100, 0 no effect, 100 complete control
Method in brief: as §2

[6] = tested on: oilseed rape; experiment: Test C preemergence; format: in vivo, Brassica napus; conditions: for Oilseed Rape plant response rating: preemergence; for Plant response rating, Oilseed Rape: Preemergence, 31 g ai/ha, scale 0 to 100, 0 no effect, 100 complete control
Method in brief: as §2

[7] = tested on: waterhemp; experiment: Test C preemergence; format: in vivo, Amaranthus rudis; conditions: for Waterhemp plant response rating: preemergence; for Plant response rating, Waterhemp: Preemergence, 31 g ai/ha, scale 0 to 100, 0 no effect, 100 complete control
Method in brief: as §2

[8] = tested on: galium; experiment: Test C postemergence; format: in vivo, Galium aparine; conditions: for Plant response rating, Galium / Galium plant response rating: scale 0 to 100 (0 no effect, 100 complete control)
Method in brief: as §2

[9] = tested on: johnsongrass; experiment: Test C postemergence; format: in vivo, Sorghum halepense; conditions: for Plant response rating, Johnsongrass / Johnsongrass plant response rating: scale 0 to 100 (0 no effect, 100 complete control)
Method in brief: as §2

[10] = tested on: ragweed; experiment: Test C postemergence; format: in vivo, Ambrosia elatior
Method in brief: as §2

[11] = 0 to 100 scale where 0 is no effect and 100 is complete control
[12] = 16 g ai/ha, scale 0 to 100 (0 no effect, 100 complete control)
[13] = 62 g ai/ha, scale 0 (no effect) to 100 (complete control)
[14] = 125 g ai/ha, scale 0 (no effect) to 100 (complete control)
[15] = 16 g ai/ha, postemergence, 0 is no effect, 100 is complete control
[16] = 125 g ai/ha, postemergence, visual rating
[17] = 125 g ai/ha, postemergence, visual rating, scale 0 to 100 (0 no effect, 100 complete control)
[18] = Postemergence, 62 g ai/ha, scale 0 to 100 (0 no effect, 100 complete control)
[19] = 0 to 100 scale, 0 no effect, 100 complete control, approx. 10 days
[20] = 16 g ai/ha, postemergence, visual rating, 13 to 15 days
[21] = Postemergence, 31 g ai/ha, 13 to 15 days
[22] = Postemergence, 31 g ai/ha, scale 0 to 100 (0 no effect, 100 complete control), 13 to 15 days
[23] = 31 g ai/ha, postemergence, visual rating, 13 to 15 days

| SMILES | Plant response rating, Ragweed [1, 11] | Plant response rating, Foxtail, Giant ([2]; 500 g ai/ha) | Plant response rating, Ducksalad [3] | Corn plant response rating [4, 12] | Corn plant response rating [4, 13] | Corn plant response rating [4, 14] | Plant response rating, Corn [4] | Foxtail, Giant plant response rating [5, 12] | Foxtail, Giant plant response rating [5, 13] | Foxtail, Giant plant response rating [5, 14] | Plant response rating, Foxtail, Giant [5] | Oilseed Rape plant response rating [6, 12] | Oilseed Rape plant response rating [6, 13] | Oilseed Rape plant response rating [6, 14] | Waterhemp plant response rating [7, 12] | Waterhemp plant response rating [7, 13] | Waterhemp plant response rating [7, 14] | Plant response rating, Galium ([8]; Postemergence, 62 g ai/ha) | Plant response rating, Johnsongrass ([9]; Postemergence, 62 g ai/ha) | Plant response rating, Ragweed [10, 18] | other results |
| --- | --- | --- | --- | --- | --- | --- | --- | --- | --- | --- | --- | --- | --- | --- | --- | --- | --- | --- | --- | --- | --- |
| Clc1cnc(Oc2cccc(Br)c2-n2cc(Br)nn2)nc1 [Compound 129] | 30 | 100 | 65 | 0 | 5 | 30 | 5 | 0 | 100 | 100 | 80 | 50 | 100 | 100 | 100 | 100 | 100 | 55 | 5 | 40 | Ragweed plant response rating [1, 11]: 80; Foxtail, Giant plant response rating ([2]; 125 g ai/ha): 90; Plant response rating, Oilseed Rape [6]: 85; Plant response rating, Waterhemp [7]: 100; Plant response rating (0 to 100), Galium [8, 15]: 50; Plant response rating, Galium [8, 16]: 85; Plant response rating (0 to 100), Johnsongrass [9, 15]: 5; Plant response rating, Johnsongrass [9, 16]: 5; Plant response rating (0 to 100), Ragweed [10, 15]: 15; Plant response rating, Ragweed [10, 17]: 85 |
| FCc1cccc(Oc2ncc(Cl)cn2)c1-n1cc(Br)cn1 [Compound 83] | 20 | 100 | 45 | 0 | 0 | 15 | 0 | 5 | 100 | 100 | 75 | 75 | 98 | 100 | 75 | 100 | 100 | 70 | 10 | 60 | Ragweed plant response rating [1, 19]: 50; Plant response rating, Foxtail, Giant ([2]; 125 g ai/ha): 90; Plant response rating, Oilseed Rape [6]: 95; Plant response rating, Waterhemp [7]: 100; Galium plant response rating [8, 20]: 50; Plant response rating (0 to 100), Galium ([8]; 125 g ai/ha, postemergence): 60; Plant response rating, Galium [8, 21]: 65; Johnsongrass plant response rating [9, 20]: 0; Plant response rating (0 to 100), Johnsongrass ([9]; 125 g ai/ha, postemergence): 10; Plant response rating, Johnsongrass [9, 21]: 0; Plant response rating (0 to 100), Ragweed ([10]; 125 g ai/ha, postemergence): 70; Plant response rating, Ragweed [10, 22]: 40 |
| CCOc1cn(-c2c(Br)cccc2Oc2ncc(Cl)cn2)nn1 [Compound 84] | 10 | 100 | 50 | 0 | 0 | 5 | 0 | 5 | 98 | 100 | 55 | 50 | 100 | 100 | 100 | 100 | 100 | 60 | 0 | 40 | Ragweed plant response rating [1, 19]: 40; Plant response rating, Foxtail, Giant ([2]; 125 g ai/ha): 100; Plant response rating, Oilseed Rape [6]: 85; Plant response rating, Waterhemp [7]: 75; Galium plant response rating [8, 20]: 60; Plant response rating (0 to 100), Galium ([8]; 125 g ai/ha, postemergence): 95; Plant response rating, Galium [8, 21]: 75; Johnsongrass plant response rating [9, 20]: 0; Plant response rating (0 to 100), Johnsongrass ([9]; 125 g ai/ha, postemergence): 0; Plant response rating, Johnsongrass [9, 21]: 0; Plant response rating (0 to 100), Ragweed ([10]; 125 g ai/ha, postemergence): 80; Plant response rating, Ragweed [10, 22]: 10 |
| CCCOc1cnn(-c2c(C#N)cccc2Oc2ncc(Cl)cn2)c1 [Compound 150] | 30 | 100 | 90 | 0 | 25 | 45 | 0 | 5 | 100 | 100 | 75 | 0 | 90 | 100 | 20 | 98 | 98 | 75 | 5 | 35 | Ragweed plant response rating [1, 11]: 70; Foxtail, Giant plant response rating ([2]; 125 g ai/ha): 100; Plant response rating (0 to 100), Galium [8, 15]: 60; Galium plant response rating [8, 23]: 65; Plant response rating, Galium [8, 16]: 80; Plant response rating (0 to 100), Johnsongrass [9, 15]: 0; Johnsongrass plant response rating [9, 23]: 0; Plant response rating, Johnsongrass [9, 16]: 5; Plant response rating (0 to 100), Ragweed [10, 15]: 30; Ragweed plant response rating ([10]; 31 g ai/ha, postemergence, visual rating, scale 0 to 100 (0 no effect, 100 complete control), 13 to 15 days): 30; Plant response rating, Ragweed [10, 17]: 65 |
